According to patent publication US11369697B2, “Liposome nanoparticles for tumor magnetic resonance imaging” (UNITED KINGDOM RESEARCH AND INNOVATION, priority 2009, dated 2022):

Assay: T1 relaxation of Gd lipids in aqueous solution (MRI efficacy)
Type: physicochemical
Conditions: 0.5 mM, 4.7 T
Description: In order to establish the relaxation properties of Gd.DOTA.DSA, MRI studies of the lipid in aqueous solution were performed and T1 values and relaxivity parameters generated in milliseconds. […] A standard T1 saturation recovery method (spin echo sequence) was used to determine T1 values (according to Eq. 1), where x is TR (time to repeat), and Si is the measured signal for a given TR. Si=S0(1−e^(−x/T^1^))
MRI Analysis of Gd.DOTA.DSA For T1 analysis, Gd.DOTA.DSA 4, Gd.DTPA.BSA, and controls of the metal free compound, and Magnevist (Schering A G, Germany) were added to water to give a final concentration of 0.5 mM. The solutions (200 μL) were placed in eppendorf tubes and T1 relaxation values measured on a 4.7 T Varian MR scanner at ambient temperature. For relaxivity measurements; gadolinium liposome formulations were prepared in order to obtain five different gadolinium concentrations between […] in 200 μL of distilled water and the molar relaxivity r1 (mM^−1 s^−1) determined. T1 values were obtained using saturation recovery experiments performed with a standard spin-echo sequence and a 2 mm single slice acquisition (TR=50, 100, 200, 300, 500, 700, 1200, 3000, 5000, 7000 ms, TE=15 ms), number of signal averages; 2, FOV; 70×70 mm^2, collected into a matrix of 256×128.

Gadolinium (III) 2-{4,7-Bis-Carboxymethyl-10-[(N, N-Distearylamidomethyl-N′-Amido-Methyl]-1,4,7,10-Tetra-Azacyclododec-1-yl}-Acetic Acid [Gd.DOTA.DSA]
T1 relaxation compared to Gd.DTPA.BSA lipid: comparable, if slightly better
efficacy compared to Magnevist and Gd.DTPA.BSA (T1 values) (lipid in aqueous solution, clinically relevant dose): compare favourably
